According to article PMC6881293, “Nanomolar-potency ‘co-potentiator’ therapy for cystic fibrosis caused by a defined subset of minimal function CFTR mutants” (Scientific Reports, 2019):

Columns and labels:
Type in all cases: cell-based
W1282X-CFTR [1] = target: T1, W1282X-CFTR (Homo sapiens, UniProt P13569); experiment: Short-circuit current in FRT cells expressing W1282X-CFTR; conditions: VX-809-corrected W1282X-CFTR-expressing FRT cells; for increase in VX-770 current: forskolin and 5 μM VX-770; for EC50: in the presence of forskolin and 5 μM VX-770
T1 construct: expressed in transfected cells
Experimental: Given the utility of co-potentiators as possible CF therapeutics for several minimal function CFTR mutants, a screen was done to identify novel co-potentiator scaffolds. Screening used FRT cells stably expressing W1282X-CFTR and the halide-sensitive EYFP-H148Q/I152L/F46L (YFP) that were treated for 24 hours with 3 μM VX-809 to increase CFTR1281 cell surface expression (Fig. 4A). Just prior to assay cells were treated for 10 min with test compounds at 25 μM together with 20 μM forskolin and 15 nM VX-770. CFTR channel activity was deduced from the initial rate of YFP fluorescence quenching in response to addition of iodide-substituted phosphate buffered saline. Primary screening of 120,000 drug-like synthetic small molecules identified 212 compounds giving channel activity >50% of that produced by forskolin, VX-770 and 20 μM ASP-11 (Fig. 4B). […] Each of these compounds added to VX-809-corrected FRT cells expressing W1282X-CFTR produced little current without VX-770 (Fig. 4E).
Figure 4 Novel co-potentiators identified by high-throughput screening. (A) Assay design. (B) Summary of screening workflow and results. (C) Chemical structures of novel co-potentiators identified by screening. (D) Representative short-circuit current data in FRT cells expressing W1282X-CFTR. Concentrations: 20 μM forskolin (fsk), 5 μM VX-770 (n = 3). (E) Effects of sequential addition of 20 μM forskolin followed by 20 μM of A-01, B-01, C-01 and D-01, and 5 μM of VX-770 in FRT cells expressing W1282X-CFTR. CFTRinh-172 was used at 10 μM in all experiments.
(§1) Short-circuit current was measured on cells cultured on Snapwell clear permeable supports (Corning) as described[10],[11]. Hemichambers were connected to a DVC-1000 voltage clamp (World Precision Instruments Inc., Sarasota, FL) via Ag/AgCl electrodes and 3 M KCl agar bridges for recording of the short-circuit current. For human airway epithelial cells, symmetrical HCO3^−-buffered solutions (in mM: 120 NaCl, 5 KCl, 1 MgCl2, 1 CaCl2, 5 Hepes, 25 NaHCO3, 10 glucose, pH 7.4) for basolateral and apical side were used. For FRT cells, the basolateral membrane was permeabilized with 250 μg/ml amphotericin B, and experiments were done with a chloride gradient using a HCO3^−-buffered solutions (Basolateral (mM): 120 NaCl, 5 KCl, 1 MgCl2, 1 CaCl2, 5 Hepes, 25 NaHCO3, 10 glucose, pH 7.4; apical (mM): 60 NaCl, 60 mM sodium gluconate, 5 KCl, 1 MgCl2, 1 CaCl2, 5 Hepes, 25 NaHCO3, 10 glucose, pH 7.4). All cells were equilibrated with 95% O2, 5% CO2 and maintained at 37 °C during experiments.

W1282X-CFTR [2] = target: T1, W1282X-CFTR; experiment: Structure-activity testing of analogs in FRT cells expressing W1282X-CFTR
Experimental: To establish structure-activity relationships, 240 commercially available piperidinepyridoindole analogs and 160 pyrazoloquinoline analogs were tested in FRT cells expressing W1282X-CFTR. In general, the methoxy substituent on the 4-position (R^3) on the pyridoindole ring increased potency (compare A01 vs A534). N-methylation on the pyridoindole ring abolished activity (compare A534 vs A600). For substituent R^1 on the piperidine ring, substituted benzyl gave greatest activity (A061 and A662). Other R^1 substituents, including sulfonamide (A145), alkyl (A764) and carbocyclic (A714), reduced activity. Changing the benzylic carbon from methylene (CH2) to ketone (C=O) abolished activity (A815, A350 and A956).
For R^3, pyridine (D003), benzyl (D035) and substituted methyl-pyrazole (D086) abolished activity. […] The D123 pyrazoloquinoline with R^3 substituted with thiophene-quinoline heterocycle gave the best potency.

Q1313X-CFTR = target: T2, Q1313X-CFTR (Homo sapiens, UniProt P13569); experiment: Short-circuit current in FRT cells expressing Q1313X-CFTR; conditions: Q1313X-CFTR FRT cells; 20 μM forskolin, 5 μM VX-770; 20 μM P2, P3, P5, ASP-11; 25 μM apigenin
T2 construct: expressed in transfected cells
Experimental: As shown in Fig. 1C and summarized in Fig. 2, ASP-11 acted in synergy with VX-770 to increase chloride current in FRT cells expressing the NBD2 mutations I1234del- and Q1313X-CFTR by ~3–9-fold compared to VX-770. I1234del- and Q1313X-CFTR-expressing cells were also treated with VX-809 for 24 hours (to consider the effect of available CFTR therapeutics) with 2–3-fold greater currents observed.
Studies on FRT cells expressing Q1313X-CFTR produced similar data (Fig. 3C).
(§2) Figures 5C,D show data in N1303K- and Q1313X-expressing FRT cells.
as §1

N1303K-CFTR = target: T3, N1303K-CFTR (Homo sapiens, UniProt P13569, N1303K); experiment: Short-circuit current in FRT cells expressing N1303K-CFTR; conditions: N1303K-CFTR FRT cells; for short-circuit current response when added after VX-770: 20 μM forskolin, 5 μM VX-770, then 20 μM compound
T3 construct: expressed in transfected cells
Experimental: Based on prior studies[10],[11],[20], we hypothesized that distinct binding sites may be required to bind a potentiator and co-potentiator to rescue channel activity of CFTR mutants. We defined the potentiator VX-770 as a Class I compound, and co-potentiator ASP-11 as a Class II compound (Fig. 3A,D). Short-circuit current measurements in N1303K-CFTR-expressing FRT cells confirmed synergy when ASP-11 was added after VX-770 (Fig. 3Bi). […] In each experiment, CFTRinh-172 confirmed that current was from CFTR.
Figure 3 Definition of Class I and II CFTR potentiators. (A) Chemical structures of Class I and II potentiators. (B) Short-circuit current in FRT cells expressing N1303K-CFTR in response to forskolin and indicated potentiators. Concentrations: 20 μM forskolin, 5 μM VX-770, 20 μM ASP-11, 20 μM GLPG1837, 20 μM P2, 20 μM P3, 20 μM P5, 20 μM W1282Xpot-C01, and 10 μM CFTRinh-172. C. Short-circuit current in FRT cells expressing Q1313X-CFTR in response to forskolin and indicated potentiators. Concentrations: as in panel B, and 25 μM apigenin. (D) Summary of relative N1303K-CFTR activation in response to combinations of Class I and Class II potentiators. Mean ± S.E.M., n = 3. TEXT PRINTED IN THE PICTURE: (D) VX-770: N1303K-CFTR: P5: 1% ±1%; N1303K-CFTR: GLPG 1837: 10% ±5%; N1303K-CFTR: ASP-11: 100% ±3%; N1303K-CFTR: apigenin: 100% ±5% | (D) P5: N1303K-CFTR: VX-770: 1% ±1%; N1303K-CFTR: GLPG 1837: 2% ±2%; N1303K-CFTR: ASP-11: 52% ±5%; N1303K-CFTR: apigenin: 56% ±5% | (D) GLPG 1837: N1303K-CFTR: VX-770: 0% ±5%; N1303K-CFTR: P5: 2% ±2%; N1303K-CFTR: ASP-11: 100% ±4%; N1303K-CFTR: apigenin: 98% ±5% | (D) ASP-11: N1303K-CFTR: VX-770: 100% ±3%; N1303K-CFTR: P5: 47% ±4%; N1303K-CFTR: GLPG 1837: 100% ±5%; N1303K-CFTR: apigenin: 7% ±3% | (D) apigenin: N1303K-CFTR: VX-770: 100% ±5%; N1303K-CFTR: P5: 50% ±5%; N1303K-CFTR: GLPG 1837: 100% ±5%; N1303K-CFTR: ASP-11: 5% ±2% DOUBTS OF THE COPYIST ABOUT THIS PICTURE: Panel D is a matrix of pairs of substances (row substance combined with column substance). The picture prints no name for the measure, only % values and a 0%–100% colour scale. / The print in panel D is small, so 3, 5, 6 and 8 are hard to tell apart in these values. / VX-770 / GLPG 1837: ±5% could be ±3% / VX-770 / ASP-11: ±3% could be ±5% / VX-770 / apigenin: ±5% could be ±3% / P5 / ASP-11: 52% ±5%, digits uncertain / P5 / apigenin: 56% could be 58%, and ±5% is uncertain / GLPG 1837 / VX-770: 0% ±5%, error digit uncertain / GLPG 1837 / apigenin: 98% could be 96%, and ±5% is uncertain / ASP-11 / VX-770: ±3% could be ±5% / ASP-11 / GLPG 1837: ±5% could be ±3% / ASP-11 / apigenin: 7% ±3%, error digit uncertain / apigenin / VX-770: ±5% could be ±3% / apigenin / P5: 50% ±5%, digits uncertain / apigenin / GLPG 1837: ±5% could be ±3% / apigenin / ASP-11: 5% ±2%, the 5 is uncertain
as §2, §1

T2 sequence (P13569 1-1312 limits assumed): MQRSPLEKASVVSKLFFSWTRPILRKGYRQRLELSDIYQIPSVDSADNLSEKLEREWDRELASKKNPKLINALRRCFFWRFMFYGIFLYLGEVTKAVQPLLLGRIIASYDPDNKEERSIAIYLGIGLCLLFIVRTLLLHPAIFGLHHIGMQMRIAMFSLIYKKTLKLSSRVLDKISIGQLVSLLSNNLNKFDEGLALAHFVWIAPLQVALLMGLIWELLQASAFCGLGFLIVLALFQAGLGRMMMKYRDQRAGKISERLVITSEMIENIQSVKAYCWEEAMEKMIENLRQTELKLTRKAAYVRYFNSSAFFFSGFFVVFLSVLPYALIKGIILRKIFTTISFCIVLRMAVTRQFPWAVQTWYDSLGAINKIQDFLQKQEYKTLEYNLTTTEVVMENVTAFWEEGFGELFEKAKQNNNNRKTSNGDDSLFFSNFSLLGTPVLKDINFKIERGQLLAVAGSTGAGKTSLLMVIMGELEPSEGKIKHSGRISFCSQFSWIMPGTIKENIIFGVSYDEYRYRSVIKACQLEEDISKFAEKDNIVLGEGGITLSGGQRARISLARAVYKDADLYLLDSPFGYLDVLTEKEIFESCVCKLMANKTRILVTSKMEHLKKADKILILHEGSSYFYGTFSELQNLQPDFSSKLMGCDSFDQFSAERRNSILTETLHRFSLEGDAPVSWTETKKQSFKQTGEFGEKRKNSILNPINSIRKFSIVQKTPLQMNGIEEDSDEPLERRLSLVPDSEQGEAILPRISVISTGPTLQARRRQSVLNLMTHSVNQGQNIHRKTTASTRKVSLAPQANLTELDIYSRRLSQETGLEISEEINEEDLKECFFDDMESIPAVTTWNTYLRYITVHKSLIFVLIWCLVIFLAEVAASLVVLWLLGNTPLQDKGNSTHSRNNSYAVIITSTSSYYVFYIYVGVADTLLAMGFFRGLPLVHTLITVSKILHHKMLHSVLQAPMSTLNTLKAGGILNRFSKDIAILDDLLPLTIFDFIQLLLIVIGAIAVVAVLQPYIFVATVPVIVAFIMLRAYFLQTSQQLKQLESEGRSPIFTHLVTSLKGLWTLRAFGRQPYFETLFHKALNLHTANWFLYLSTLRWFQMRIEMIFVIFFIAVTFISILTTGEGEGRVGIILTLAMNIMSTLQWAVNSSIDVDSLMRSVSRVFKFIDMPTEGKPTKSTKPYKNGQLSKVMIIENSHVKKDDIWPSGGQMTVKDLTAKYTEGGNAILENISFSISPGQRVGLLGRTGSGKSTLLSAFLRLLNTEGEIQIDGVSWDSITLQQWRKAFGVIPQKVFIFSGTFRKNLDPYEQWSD
T1 sequence (P13569 1-1281 limits assumed): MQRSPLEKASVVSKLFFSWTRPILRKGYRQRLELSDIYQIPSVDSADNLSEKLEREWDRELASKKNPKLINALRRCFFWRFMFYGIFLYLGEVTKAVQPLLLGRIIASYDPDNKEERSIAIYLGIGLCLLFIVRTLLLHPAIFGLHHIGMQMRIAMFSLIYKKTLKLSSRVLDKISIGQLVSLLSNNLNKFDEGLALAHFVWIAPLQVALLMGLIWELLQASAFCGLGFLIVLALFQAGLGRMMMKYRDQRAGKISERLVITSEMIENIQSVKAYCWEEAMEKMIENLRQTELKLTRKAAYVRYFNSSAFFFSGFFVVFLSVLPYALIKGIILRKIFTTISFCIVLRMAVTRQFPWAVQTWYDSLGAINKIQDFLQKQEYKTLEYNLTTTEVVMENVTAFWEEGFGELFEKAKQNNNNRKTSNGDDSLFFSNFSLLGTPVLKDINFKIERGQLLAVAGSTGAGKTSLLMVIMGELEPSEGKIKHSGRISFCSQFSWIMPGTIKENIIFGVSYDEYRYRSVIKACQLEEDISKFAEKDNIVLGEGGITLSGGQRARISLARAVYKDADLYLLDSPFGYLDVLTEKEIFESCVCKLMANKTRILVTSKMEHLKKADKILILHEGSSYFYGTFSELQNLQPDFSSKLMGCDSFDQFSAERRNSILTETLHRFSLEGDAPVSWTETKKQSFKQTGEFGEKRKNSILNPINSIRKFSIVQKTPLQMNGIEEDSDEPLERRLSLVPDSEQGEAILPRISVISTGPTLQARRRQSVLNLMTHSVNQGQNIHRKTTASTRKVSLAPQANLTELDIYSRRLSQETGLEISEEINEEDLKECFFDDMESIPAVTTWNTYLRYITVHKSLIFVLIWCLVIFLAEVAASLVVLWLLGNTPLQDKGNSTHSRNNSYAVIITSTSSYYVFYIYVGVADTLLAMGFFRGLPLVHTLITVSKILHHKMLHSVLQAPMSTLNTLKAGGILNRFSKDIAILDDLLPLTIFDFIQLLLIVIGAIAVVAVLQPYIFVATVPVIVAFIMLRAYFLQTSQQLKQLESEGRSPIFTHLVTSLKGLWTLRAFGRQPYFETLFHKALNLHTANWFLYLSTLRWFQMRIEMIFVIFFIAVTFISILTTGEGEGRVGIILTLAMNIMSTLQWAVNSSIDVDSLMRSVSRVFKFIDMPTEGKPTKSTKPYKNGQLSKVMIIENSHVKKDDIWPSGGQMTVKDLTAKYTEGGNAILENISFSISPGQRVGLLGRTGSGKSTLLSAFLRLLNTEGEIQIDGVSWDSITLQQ
T3 sequence (P13569 whole entry N1303K): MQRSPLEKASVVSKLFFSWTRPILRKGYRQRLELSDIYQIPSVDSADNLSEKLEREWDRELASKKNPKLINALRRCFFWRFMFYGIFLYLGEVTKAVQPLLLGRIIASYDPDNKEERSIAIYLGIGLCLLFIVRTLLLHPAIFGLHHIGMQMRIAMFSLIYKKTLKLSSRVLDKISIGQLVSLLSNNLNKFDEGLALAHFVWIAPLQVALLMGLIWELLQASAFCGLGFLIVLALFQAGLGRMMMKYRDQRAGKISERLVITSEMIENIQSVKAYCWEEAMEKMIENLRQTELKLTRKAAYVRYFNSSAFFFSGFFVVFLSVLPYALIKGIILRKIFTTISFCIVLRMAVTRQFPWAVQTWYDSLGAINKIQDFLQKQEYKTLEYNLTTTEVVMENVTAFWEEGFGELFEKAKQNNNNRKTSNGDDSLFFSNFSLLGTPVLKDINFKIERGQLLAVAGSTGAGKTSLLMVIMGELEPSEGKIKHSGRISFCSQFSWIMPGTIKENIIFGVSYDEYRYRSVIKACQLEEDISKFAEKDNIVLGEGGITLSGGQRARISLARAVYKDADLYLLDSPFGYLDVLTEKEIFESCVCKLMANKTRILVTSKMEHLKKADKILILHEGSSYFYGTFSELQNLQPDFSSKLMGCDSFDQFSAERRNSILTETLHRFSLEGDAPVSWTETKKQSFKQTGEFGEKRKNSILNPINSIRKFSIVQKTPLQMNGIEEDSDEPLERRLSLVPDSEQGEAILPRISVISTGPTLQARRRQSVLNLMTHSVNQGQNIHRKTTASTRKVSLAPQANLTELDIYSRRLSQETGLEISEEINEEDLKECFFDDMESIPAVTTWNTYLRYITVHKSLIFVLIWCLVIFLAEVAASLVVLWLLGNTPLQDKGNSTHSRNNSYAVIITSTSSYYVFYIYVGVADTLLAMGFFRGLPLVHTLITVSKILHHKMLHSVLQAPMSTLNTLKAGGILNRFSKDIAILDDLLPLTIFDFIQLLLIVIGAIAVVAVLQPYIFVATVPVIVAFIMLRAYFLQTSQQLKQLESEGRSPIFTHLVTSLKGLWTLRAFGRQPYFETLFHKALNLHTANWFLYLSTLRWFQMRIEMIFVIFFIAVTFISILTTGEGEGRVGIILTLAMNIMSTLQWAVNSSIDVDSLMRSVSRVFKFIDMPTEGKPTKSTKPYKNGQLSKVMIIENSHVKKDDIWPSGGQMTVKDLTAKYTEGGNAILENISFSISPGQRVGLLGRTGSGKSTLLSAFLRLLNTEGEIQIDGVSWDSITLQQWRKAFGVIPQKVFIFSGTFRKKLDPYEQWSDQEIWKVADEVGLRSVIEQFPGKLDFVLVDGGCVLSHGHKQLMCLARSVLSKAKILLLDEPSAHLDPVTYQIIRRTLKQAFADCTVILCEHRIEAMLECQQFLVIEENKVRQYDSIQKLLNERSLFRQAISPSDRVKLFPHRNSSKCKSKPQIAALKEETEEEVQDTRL

| SMILES | increase in VX-770 current (W1282X-CFTR [1]) | EC50 (W1282X-CFTR [1]) | short-circuit current response when added after VX-770 (Q1313X-CFTR) | short-circuit current response when added after VX-770 (N1303K-CFTR) | also measured |
| --- | --- | --- | --- | --- | --- |
| O=C(CN1C(=O)CC(c2cccs2)=Nc2ccccc21)NCc1ccc(Cl)cc1 [CP-B01] | ~ 6 fold | 5 µM |  |  |  |
| CCCS(=O)(=O)N1CCCc2ccc(NS(=O)(=O)c3cccs3)cc21 [CP-C01] | ~ 6 fold | 8 µM |  |  |  |
| COc1cccc(CN2CCC3(CC2)NCCc2c3[nH]c3ccc(OC)cc23)c1 [Compound A01] | ~ 6 fold | 10 µM |  |  | Relative Vmax (%) (W1282X-CFTR [2]; Table 1, 100% Vmax corresponds to 20 μM ASP-11): 100%; EC50 (W1282X-CFTR [2]; Table 1, piperidine-pyridoindole analogs): 10 µM |
| COc1ccc2cc3c(N)nn(C(=O)c4ccccc4Cl)c3nc2c1 [Compound D001] | ~ 6 fold | 15 µM |  |  | Relative Vmax (%) (W1282X-CFTR [2]; Table 2, 100% Vmax corresponds to 20 μM ASP-11): 90%; EC50 (W1282X-CFTR [2]; Table 2, pyrazoloquinoline analogs): 15 µM |
| CC(C)c1ccc(NC(=O)C(c2ccccc2)N(C)C(=O)Cc2c[nH]c3ccccc23)cc1 (centres unmarked) [Compound P2] |  |  | did not elevate current | did not further increase current |  |
| CCN(c1ccccc1)S(=O)(=O)c1ccc2[nH]cc(C(=O)NCc3ccccc3OC)c(=O)c2c1 [Compound P3] |  |  | did not elevate current | did not further increase current |  |
| NC(=O)c1c(NC(=O)c2ccccc2Cl)sc2c1CCCC2 [Compound P5] |  |  | did not elevate current | did not further increase current |  |
| Cc1cc(C)cc(N(Cc2ccc(Cl)cc2)S(=O)(=O)c2cccn3c(C)nnc23)c1 [W1282Xpot-C01] |  |  |  | activated N1303K-CFTR | activation by two Class II potentiators added together (N1303K-CFTR; 20 μM W1282Xpot-C01 and 20 μM ASP-11, no Class I potentiator): little activation |
